Test results as given in ChEMBL document CHEMBL4270663, “6-Benzhydryl-4-amino-quinolin-2-ones as Potent Cannabinoid Type 1 (CB1) Receptor Inverse Agonists and Chemical Modifications for Peripheral Selectivity” (J Med Chem, 2018).
Active and inactive are the calls of the source. The calls are words filed in the database; no cut-off is given here.

What was measured:
Cannabinoid receptor 2 = Cannabinoid receptor 2 (Homo sapiens, UniProt P34972); test: Inverse agonist activity at human CB2 receptor expressed in HEK293 cells assessed as […] cAMP accumulation after 30 mins by HTRF assay; assay type: functional, cell-based
Cannabinoid receptor 2, sequence (P34972 whole entry): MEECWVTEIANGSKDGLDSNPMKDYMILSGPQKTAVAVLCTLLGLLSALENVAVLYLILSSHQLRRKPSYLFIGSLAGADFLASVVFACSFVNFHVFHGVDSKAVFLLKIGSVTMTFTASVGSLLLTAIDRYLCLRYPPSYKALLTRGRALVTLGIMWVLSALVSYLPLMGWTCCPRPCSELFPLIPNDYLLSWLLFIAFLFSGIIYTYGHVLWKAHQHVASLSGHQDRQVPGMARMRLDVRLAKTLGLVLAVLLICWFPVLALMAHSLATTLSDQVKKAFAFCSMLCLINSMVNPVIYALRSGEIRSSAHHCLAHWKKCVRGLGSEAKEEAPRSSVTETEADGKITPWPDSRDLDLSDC

[1] = Metabolic stability in human liver microsomes assessed as parent compound remaining at 1 uM after 10 mins in presence of NADPH; assay type: ADME, microsome; details: read-out: Stability
[2] = Metabolic stability in rat liver microsomes assessed as parent compound remaining at 1 uM after 10 mins in presence of NADPH; assay type: ADME, microsome; details: read-out: Stability
Cytochrome P450 1A2 = biological target: T1, Cytochrome P450 1A2 (Homo sapiens, UniProt P05177); test: Inhibition of CYP1A2 in human liver microsomes using phenacetin as substrate after 10 to 30 mins by LC/MS analysis; assay type: ADME
T1 sequence (P05177 whole entry): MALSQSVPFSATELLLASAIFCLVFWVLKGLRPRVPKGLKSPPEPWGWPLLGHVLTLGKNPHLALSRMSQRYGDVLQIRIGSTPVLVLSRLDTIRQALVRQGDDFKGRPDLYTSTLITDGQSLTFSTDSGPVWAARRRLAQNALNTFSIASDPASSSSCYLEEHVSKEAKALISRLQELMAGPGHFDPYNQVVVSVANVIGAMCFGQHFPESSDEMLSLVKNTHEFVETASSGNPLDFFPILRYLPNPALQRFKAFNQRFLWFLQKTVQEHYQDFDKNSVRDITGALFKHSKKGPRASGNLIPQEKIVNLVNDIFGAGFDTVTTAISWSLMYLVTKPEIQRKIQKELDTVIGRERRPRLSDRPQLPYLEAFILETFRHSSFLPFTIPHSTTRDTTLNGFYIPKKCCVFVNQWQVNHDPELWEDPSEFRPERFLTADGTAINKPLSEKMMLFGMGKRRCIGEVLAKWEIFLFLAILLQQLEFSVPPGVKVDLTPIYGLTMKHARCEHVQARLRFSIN

Cytochrome P450 3A4 = Cytochrome P450 3A4 (Homo sapiens, UniProt P08684); test: Inhibition of CYP3A4 in human liver microsomes using midazolam/testosterone as substrate after 10 to 30 mins by LC/MS analysis; assay type: ADME
Cytochrome P450 3A4, sequence (P08684 whole entry): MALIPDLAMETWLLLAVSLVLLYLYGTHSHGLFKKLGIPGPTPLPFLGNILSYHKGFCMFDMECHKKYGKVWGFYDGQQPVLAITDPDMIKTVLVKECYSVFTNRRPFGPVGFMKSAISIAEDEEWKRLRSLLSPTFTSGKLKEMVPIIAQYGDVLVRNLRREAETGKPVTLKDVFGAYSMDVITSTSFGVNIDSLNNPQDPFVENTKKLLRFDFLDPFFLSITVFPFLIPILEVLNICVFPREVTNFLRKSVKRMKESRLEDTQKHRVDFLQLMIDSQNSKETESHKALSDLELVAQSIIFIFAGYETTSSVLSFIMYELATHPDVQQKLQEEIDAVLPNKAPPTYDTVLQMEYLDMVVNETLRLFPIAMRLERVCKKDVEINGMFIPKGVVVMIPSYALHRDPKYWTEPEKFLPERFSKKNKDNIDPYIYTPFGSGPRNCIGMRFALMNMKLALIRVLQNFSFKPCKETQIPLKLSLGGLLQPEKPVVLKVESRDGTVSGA

Cytochrome P450 2C9 = Cytochrome P450 2C9 (Homo sapiens, UniProt P11712); test: Inhibition of CYP2C9 in human liver microsomes using tolbutamide as substrate after 10 to 30 mins by LC/MS analysis; assay type: ADME
Cytochrome P450 2C9, sequence (P11712 whole entry): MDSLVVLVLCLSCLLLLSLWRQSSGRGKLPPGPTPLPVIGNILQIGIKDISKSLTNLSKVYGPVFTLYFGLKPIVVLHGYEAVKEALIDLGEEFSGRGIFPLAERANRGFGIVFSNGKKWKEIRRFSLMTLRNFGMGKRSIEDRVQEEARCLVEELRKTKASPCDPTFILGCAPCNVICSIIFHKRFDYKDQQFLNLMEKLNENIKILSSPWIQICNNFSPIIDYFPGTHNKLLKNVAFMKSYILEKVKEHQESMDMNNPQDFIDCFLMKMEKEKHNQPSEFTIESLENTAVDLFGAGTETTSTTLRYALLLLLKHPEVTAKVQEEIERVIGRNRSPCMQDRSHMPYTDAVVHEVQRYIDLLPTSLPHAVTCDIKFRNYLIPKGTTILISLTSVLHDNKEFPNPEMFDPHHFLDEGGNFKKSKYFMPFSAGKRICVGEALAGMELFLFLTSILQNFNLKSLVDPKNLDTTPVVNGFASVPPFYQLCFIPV

Cytochrome P450 2D6 = Cytochrome P450 2D6 (Homo sapiens, UniProt P10635); test: Inhibition of CYP2D6 in human liver microsomes using dextromethorphan as substrate after 10 to 30 mins by LC/MS analysis; assay type: ADME
Cytochrome P450 2D6, sequence (P10635 whole entry): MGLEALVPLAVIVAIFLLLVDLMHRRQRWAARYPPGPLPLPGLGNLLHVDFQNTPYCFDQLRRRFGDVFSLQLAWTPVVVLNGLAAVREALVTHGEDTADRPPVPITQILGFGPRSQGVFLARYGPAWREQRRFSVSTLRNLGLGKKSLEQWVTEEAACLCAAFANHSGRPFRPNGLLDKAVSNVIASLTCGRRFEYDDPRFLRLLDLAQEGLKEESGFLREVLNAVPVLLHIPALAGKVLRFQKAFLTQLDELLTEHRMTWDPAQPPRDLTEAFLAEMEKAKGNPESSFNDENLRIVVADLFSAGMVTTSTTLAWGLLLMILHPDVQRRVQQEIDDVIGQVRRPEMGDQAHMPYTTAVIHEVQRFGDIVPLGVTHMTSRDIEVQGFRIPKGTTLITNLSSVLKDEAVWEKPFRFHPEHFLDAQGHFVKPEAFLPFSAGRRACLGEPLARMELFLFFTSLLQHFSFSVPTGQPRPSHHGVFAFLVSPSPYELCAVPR

[3] = Drug uptake in C57BL/6J mouse plasma at 20 mg/kg, po measured after 1 hr; assay type: ADME, organism-based
[4] = Drug uptake in brain of MDR1a knockout CF-1 mouse at 20 mg/kg, po measured at 2 hrs post last dose on day 2; assay type: ADME, organism-based; details: in vivo
[5] = Ratio of drug level in brain to plasma of wild type CF-1 mouse at 20 mg/kg, po; assay type: ADME, organism-based; details: read-out: BPR
[6] = Ratio of drug level in brain to plasma of MDR1a knockout CF-1 mouse at 20 mg/kg, po; assay type: ADME, organism-based; details: read-out: BPR
Salmonella typhimurium = test: Mutagenicity in Salmonella typhimurium by Ames test; assay type: toxicity, organism-based; details: salmonella enterica subsp. enterica serovar typhimurium
[7] = Tmax in C57BL/6J mouse at 5 mg/kg, iv or 20 mg/kg, po administered via gavage by LC-MS/MS analysis; assay type: ADME, organism-based; details: in vivo
[8] = Half life in C57BL/6J mouse at 5 mg/kg, iv by LC-MS/MS analysis; assay type: ADME, organism-based; details: in vivo
[9] = Clearance in C57BL/6J mouse at 5 mg/kg, iv or 20 mg/kg, po administered via gavage by LC-MS/MS analysis; assay type: ADME, organism-based; details: in vivo
[10] = Volume of distribution at steady state in C57BL/6J mouse at 5 mg/kg, iv or 20 mg/kg, po administered via gavage by LC-MS/MS analysis; assay type: ADME, organism-based; details: in vivo, read-out: Vdss
[11] = Drug uptake in plasma of diet-induced obese C57BL/6J mouse model at 30 mg/kg administered as daily dose measured at 2 hrs post last dose on day 5; assay type: ADME, organism-based
[12] = Ratio of drug level in brain to plasma of diet-induced obese C57BL/6J mouse model at 30 mg/kg administered as daily dose measured at 2 hrs post last dose on day 5; assay type: ADME, organism-based; details: read-out: BPR
[13] = Drug uptake in plasma of diet-induced obese C57BL/6J mouse model at 1 mg/kg, po administered as daily dose measured at 2 hrs post last dose on day 1; assay type: ADME, organism-based
[14] = Drug uptake in plasma of diet-induced obese C57BL/6J mouse model at 3 mg/kg, po administered as daily dose measured at 2 hrs post last dose on day 1; assay type: ADME, organism-based
[15] = Drug uptake in plasma of diet-induced obese C57BL/6J mouse model at 10 mg/kg, po administered as daily dose measured at 2 hrs post last dose on day 1; assay type: ADME, organism-based
[16] = Drug uptake in brain of diet-induced obese C57BL/6J mouse model at 1 mg/kg, po administered as daily dose measured at 2 hrs post last dose on day 23; assay type: ADME, organism-based; details: in vivo
[17] = Drug uptake in brain of diet-induced obese C57BL/6J mouse model at 3 mg/kg, po administered as daily dose measured at 2 hrs post last dose on day 23; assay type: ADME, organism-based; details: in vivo
[18] = Ratio of drug level in brain to plasma of diet-induced obese C57BL/6J mouse model at 1 mg/kg, po administered as daily dose measured at 2 hrs post last dose on day 23; assay type: ADME, organism-based; details: read-out: BPR
[19] = Ratio of drug level in brain to plasma of diet-induced obese C57BL/6J mouse model at 3 mg/kg, po administered as daily dose measured at 2 hrs post last dose on day 23; assay type: ADME, organism-based; details: read-out: BPR
Mus musculus [20] = test: Antiobesity activity in diet induced obese C57BL/6J mouse model assessed as decrease in food intake at 30 mg/kg administered as daily dose measured every day for 5 days; assay type: functional, organism-based
Mus musculus [21] = test: Antiobesity activity in diet induced obese C57BL/6J mouse model assessed as decrease in food intake at 3 to 10 mg/kg, po administered as daily dose measured every day for 5 days and continuing every other day till day 17; assay type: functional, organism-based
Mus musculus [22] = test: Antiobesity activity in diet induced obese C57BL/6J mouse model assessed as decrease in food intake at 3 mg/kg, po administered as daily dose measured every day for 5 days and continuing every other day till day 8 and 15; assay type: functional, organism-based
Mus musculus [23] = test: Antiobesity activity in diet induced obese C57BL/6J mouse model assessed as decrease in body weight at 3 mg/kg, po administered as daily dose measured every day for 5 days and continuing every other day till day 8 and 15; assay type: functional, organism-based
[24] = Ratio of drug level in brain to plasma of diet-induced obese C57BL/6J mouse model at 10 mg/kg, po administered as daily dose measured at 2 hrs post last dose on day 1; assay type: ADME, organism-based; details: read-out: BPR
Mus musculus [25] = test: Antiobesity activity in diet induced obese C57BL/6J mouse model assessed as decrease in total cholesterol level at 3 to 10 mg/kg, po administered as daily dose measured at day 26 post last dose; assay type: functional, organism-based
Mus musculus [26] = test: Antiobesity activity in diet induced obese C57BL/6J mouse model assessed as decrease in liver fat content at 3 to 10 mg/kg, po administered as daily dose measured at day 26 post last dose; assay type: functional, organism-based

O=c1cc(NC2CCN(S(=O)(=O)C(F)(F)F)CC2)c2cc(C(c3ccc(Cl)cc3)c3ccc(Cl)cc3)ccc2[nH]1
EC50 (Cannabinoid receptor 2): > 10 µM | remaining at 10 min, 1 µM [1]: 100% | remaining at 10 min, 1 µM [2]: 100% | IC50 (Cytochrome P450 1A2): > 10 µM | IC50 (Cytochrome P450 3A4): > 10 µM | IC50 (Cytochrome P450 2C9): > 10 µM | IC50 (Cytochrome P450 2D6): > 10 µM | concentration at 1 h [3]: 1720 nM | Drug uptake [4]: 3.49 nmol/g | Kp [5]: 0.027 | Kp [6]: 0.72 | Activity (Salmonella typhimurium): Non-Toxic | Tmax [7]: 2 h | half-life [8]: 6.97 h | clearance [9]: 2.21 mL/min/kg | Vd [10]: 0.456 L/kg | concentration at 2 h [11]: 18500 nM | Kp at 2 h [12]: 0.024 | concentration at 2 h [13]: 508 nM | concentration at 2 h [14]: 1240 nM | concentration at 2 h [15]: 4080 nM | Drug uptake [16]: 0.06 nmol/g | Drug uptake [17]: 0.164 nmol/g | Kp at 2 h [18]: 0.072 | Kp at 2 h [19]: 0.065 | Activity (Mus musculus [20]): Active | Activity (Mus musculus [21]): Active | Activity (Mus musculus [22]): Active | Activity (Mus musculus [23]): Active | Kp at 2 h [24]: 0.026 | Activity (Mus musculus [25]): Active | Activity (Mus musculus [26]): Active
